Reference: ChEMBL document CHEMBL1909046, “DrugMatrix in vitro pharmacology data”

Assays:
[1] = DRUGMATRIX: Sodium/nucleoside co-transporter radioligand binding (ligand: nitrobenzylthioinosine); format: cell membranes, Cavia porcellus, Dunkin-Hartley, Cerebral cortex, Membrane; conditions: Not Active = under 50% inhibition at 10 µM
[2] = DRUGMATRIX: Interleukin IL-1 radioligand binding (ligand: [125I] interleukin 1beta); format: cell membranes, Membrane; conditions: nih3t3; Not Active = under 50% inhibition at 10 µM
[3] = target: Aldo-keto reductase family 1 member B1 (Rattus norvegicus, UniProt P07943); assay: biochemical; format: tissue-based, Lens of camera-type eye;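 note: inhibition of aldose reductase enzyme activity, measured with DL-glyceraldehyde as the substrate; in other assays of this panel Not Active means under 50% inhibition at 10 µM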
[4] = target: T1, Receptor-type tyrosine-protein phosphatase C (Homo sapiens, UniProt P08575); parameters: species or system Escherichia coli;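 note: inhibition of CD45 enzyme activity measured using DiFMUP as substrate; in other assays of this panel Not Active means under 50% inhibition at 10 µM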
T1 sequence (P08575 whole entry): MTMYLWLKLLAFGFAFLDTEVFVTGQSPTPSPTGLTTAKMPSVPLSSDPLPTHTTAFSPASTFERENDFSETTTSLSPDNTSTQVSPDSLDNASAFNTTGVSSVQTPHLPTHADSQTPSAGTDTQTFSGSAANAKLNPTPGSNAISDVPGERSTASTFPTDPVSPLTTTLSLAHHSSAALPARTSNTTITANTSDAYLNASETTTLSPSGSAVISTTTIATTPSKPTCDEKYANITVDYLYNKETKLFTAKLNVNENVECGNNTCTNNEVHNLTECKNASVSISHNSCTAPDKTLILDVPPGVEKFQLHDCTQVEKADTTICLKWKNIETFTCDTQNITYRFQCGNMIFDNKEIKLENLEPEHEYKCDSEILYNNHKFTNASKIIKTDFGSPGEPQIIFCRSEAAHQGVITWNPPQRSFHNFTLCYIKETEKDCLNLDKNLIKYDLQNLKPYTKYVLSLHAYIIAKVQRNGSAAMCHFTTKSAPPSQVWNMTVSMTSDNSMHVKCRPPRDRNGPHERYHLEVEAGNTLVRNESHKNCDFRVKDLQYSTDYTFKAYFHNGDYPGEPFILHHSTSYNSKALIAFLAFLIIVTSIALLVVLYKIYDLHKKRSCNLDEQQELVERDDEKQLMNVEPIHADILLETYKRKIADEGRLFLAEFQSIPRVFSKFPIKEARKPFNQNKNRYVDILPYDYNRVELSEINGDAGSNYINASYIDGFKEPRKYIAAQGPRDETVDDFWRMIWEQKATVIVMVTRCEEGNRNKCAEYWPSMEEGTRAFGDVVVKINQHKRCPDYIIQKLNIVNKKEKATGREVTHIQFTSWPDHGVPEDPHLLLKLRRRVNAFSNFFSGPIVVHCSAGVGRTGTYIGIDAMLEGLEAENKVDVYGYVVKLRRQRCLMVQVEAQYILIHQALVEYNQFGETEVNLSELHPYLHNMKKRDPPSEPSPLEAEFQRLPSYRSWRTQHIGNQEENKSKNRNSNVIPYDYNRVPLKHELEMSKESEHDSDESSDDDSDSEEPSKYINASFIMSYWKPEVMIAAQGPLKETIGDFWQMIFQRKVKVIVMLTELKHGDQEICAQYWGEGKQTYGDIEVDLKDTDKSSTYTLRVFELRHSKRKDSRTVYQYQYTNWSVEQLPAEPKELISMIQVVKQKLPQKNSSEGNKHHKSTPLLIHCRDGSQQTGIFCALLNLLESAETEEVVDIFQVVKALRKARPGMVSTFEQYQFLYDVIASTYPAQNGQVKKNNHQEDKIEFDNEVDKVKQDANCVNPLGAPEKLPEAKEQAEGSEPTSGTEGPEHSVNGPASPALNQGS

[5] = target: Cannabinoid receptor 1 (Homo sapiens, UniProt P21554); format: cell membranes, Chem-1, Membrane; conditions: chem-1; note: in other assays of this panel Not Active means under 50% inhibition at 10 µM
Cannabinoid receptor 1, sequence (P21554 whole entry): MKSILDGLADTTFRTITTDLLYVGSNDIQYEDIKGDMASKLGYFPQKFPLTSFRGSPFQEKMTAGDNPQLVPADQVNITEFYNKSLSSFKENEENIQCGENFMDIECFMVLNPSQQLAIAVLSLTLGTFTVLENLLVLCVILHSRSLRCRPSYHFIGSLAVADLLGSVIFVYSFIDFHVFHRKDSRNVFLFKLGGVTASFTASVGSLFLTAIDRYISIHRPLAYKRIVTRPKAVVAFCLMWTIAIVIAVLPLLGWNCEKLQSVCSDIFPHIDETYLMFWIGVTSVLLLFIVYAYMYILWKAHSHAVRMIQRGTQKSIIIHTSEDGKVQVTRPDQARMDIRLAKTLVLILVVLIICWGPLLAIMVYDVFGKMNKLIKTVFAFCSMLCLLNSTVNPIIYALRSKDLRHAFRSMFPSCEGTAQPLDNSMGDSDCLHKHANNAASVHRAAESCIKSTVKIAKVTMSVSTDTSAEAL

[6] = target: Histamine H2 receptor (Homo sapiens, UniProt P25021); format: cell membranes, CHO-K1, Membrane; conditions: cho-k1; note: in other assays of this panel Not Active means under 50% inhibition at 10 µM
Histamine H2 receptor, sequence (P25021 whole entry): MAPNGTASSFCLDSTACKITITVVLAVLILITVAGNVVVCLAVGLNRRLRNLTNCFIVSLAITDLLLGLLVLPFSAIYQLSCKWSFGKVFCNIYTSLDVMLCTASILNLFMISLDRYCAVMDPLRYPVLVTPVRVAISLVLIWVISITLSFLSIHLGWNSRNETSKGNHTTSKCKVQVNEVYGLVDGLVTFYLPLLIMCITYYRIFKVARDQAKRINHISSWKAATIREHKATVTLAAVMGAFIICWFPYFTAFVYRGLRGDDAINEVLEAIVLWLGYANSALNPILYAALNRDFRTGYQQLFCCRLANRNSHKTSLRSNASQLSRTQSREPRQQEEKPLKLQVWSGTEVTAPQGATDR

[7] = target: Cytochrome P450 3A4 (Homo sapiens, UniProt P08684); conditions: bti-tn-5b1-4; note: in other assays of this panel Not Active means under 50% inhibition at 10 µM
Cytochrome P450 3A4, sequence (P08684 whole entry): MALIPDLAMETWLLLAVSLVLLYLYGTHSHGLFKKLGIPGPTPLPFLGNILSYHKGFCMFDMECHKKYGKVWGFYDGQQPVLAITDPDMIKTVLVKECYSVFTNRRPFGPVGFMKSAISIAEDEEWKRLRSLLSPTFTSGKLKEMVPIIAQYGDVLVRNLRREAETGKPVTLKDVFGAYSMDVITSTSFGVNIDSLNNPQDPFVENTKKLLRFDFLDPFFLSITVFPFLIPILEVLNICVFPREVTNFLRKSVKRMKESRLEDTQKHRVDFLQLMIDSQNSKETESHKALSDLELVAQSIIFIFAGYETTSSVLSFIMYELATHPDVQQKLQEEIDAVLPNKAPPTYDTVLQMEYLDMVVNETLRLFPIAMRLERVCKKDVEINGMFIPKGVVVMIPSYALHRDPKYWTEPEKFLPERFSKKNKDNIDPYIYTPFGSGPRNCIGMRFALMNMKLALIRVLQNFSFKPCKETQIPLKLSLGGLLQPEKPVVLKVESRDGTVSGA

[8] = target: Cytochrome P450 2C19 (Homo sapiens, UniProt P33261); conditions: bti-tn-5b1-4; note: in other assays of this panel Not Active means under 50% inhibition at 10 µM
Cytochrome P450 2C19, sequence (P33261 whole entry): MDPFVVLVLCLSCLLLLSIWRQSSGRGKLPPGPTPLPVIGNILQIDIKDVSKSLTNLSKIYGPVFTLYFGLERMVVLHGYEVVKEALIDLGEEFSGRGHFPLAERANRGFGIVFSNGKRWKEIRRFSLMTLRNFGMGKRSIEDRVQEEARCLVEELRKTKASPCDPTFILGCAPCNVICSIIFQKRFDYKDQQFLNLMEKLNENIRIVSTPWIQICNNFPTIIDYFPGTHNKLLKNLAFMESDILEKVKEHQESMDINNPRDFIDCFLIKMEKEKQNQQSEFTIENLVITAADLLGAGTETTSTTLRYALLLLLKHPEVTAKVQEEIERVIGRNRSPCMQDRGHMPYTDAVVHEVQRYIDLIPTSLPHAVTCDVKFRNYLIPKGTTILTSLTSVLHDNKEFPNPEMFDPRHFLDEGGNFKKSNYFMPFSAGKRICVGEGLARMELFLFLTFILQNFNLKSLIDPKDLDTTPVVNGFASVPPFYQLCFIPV

Cc1onc(-c2ccccc2)c1-c1ccc(S(N)(=O)=O)cc1 [VALDECOXIB]
Not Active: IC50 [1] | Ki [1] | IC50 [2] | Ki [2] | IC50 [3] | IC50 [4] | IC50 [5] | IC50 [6] | IC50 [7] | Ki [7] | IC50 [8] | Ki [8]

CC(=O)CC(c1ccccc1)c1c(O)c2ccccc2oc1=O (stereo unspecified) [WARFARIN]
Not Active: IC50 [1] | Ki [1] | IC50 [2] | Ki [2] | IC50 [3] | IC50 [4] | IC50 [5] | IC50 [6] | IC50 [7] | Ki [7] | IC50 [8] | Ki [8]

[Cl-].[Cl-].[Zn+2] [ZINC CHLORIDE]
Not Active: IC50 [1] | Ki [1] | IC50 [2] | Ki [2] | IC50 [3] | IC50 [4] | IC50 [5] | IC50 [6] | IC50 [7] | Ki [7] | IC50 [8] | Ki [8]
